pIC50: −log10 of the molar value. Where a name gives a salt, the structure may show the parent alone. Read-outs that look alike come from different tables or passages of the source.
Assays:
[1] = molecular target: T1, purified enkephalinase Al (Rattus norvegicus, UniProt P07861); test: Enkephalinase-inhibiting activity in vitro (inhibition of 3H-TGG generation from 3H-leucine enkephalin); format: biochemical; settings: leucine enkephalin 5×10^-5 M, 30° C., 30 min with enzyme
T1 construct: the solubilised enzymes contained in the supernatant separated by DEAE-cellulose column chromatography; from tissue; host or cells: rat striatum, washed membrane pellet solubilised with Triton X-100, DEAE-cellulose then Sephacryl S.300
T1 sequence (P07861 1-750): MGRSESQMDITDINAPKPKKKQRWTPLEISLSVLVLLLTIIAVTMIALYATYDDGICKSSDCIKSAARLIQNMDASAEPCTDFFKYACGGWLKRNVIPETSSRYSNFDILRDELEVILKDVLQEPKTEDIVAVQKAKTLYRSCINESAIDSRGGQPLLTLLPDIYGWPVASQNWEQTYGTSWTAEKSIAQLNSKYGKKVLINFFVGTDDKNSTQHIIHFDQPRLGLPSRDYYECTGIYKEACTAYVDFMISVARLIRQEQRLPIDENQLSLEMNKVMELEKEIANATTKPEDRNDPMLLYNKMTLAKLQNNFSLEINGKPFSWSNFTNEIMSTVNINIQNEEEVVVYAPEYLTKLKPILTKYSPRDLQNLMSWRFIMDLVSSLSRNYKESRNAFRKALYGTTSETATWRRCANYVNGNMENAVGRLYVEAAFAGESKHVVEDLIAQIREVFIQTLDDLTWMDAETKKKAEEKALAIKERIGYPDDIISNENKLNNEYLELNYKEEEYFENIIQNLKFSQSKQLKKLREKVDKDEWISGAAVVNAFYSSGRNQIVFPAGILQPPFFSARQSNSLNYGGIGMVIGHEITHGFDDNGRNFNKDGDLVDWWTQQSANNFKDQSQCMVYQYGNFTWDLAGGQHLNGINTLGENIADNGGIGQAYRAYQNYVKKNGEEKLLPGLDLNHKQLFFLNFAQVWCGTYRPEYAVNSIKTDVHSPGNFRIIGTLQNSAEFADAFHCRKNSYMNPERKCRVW
Procedure: The compounds were investigated for enkephalinase-inhibiting activity using the following method.
Purified enkephalinase Al was obtained according to the following procedure (modification of the method of Gorenstein and Snyder, Life Science, Vol. 25, pages 2065-2070, 1979).
Rats were killed by decapitation and the striata dissected out on ice. The pooled tissues were homogenised in ice-cold Tris/hydrochloric acid buffer (50 mM, pH 7.70, 30 ml per gram of tissue) and centrifuged (50,000 g, 15 mins). The resulting supernatent was discarded and the remaining pellet washed three times. The washed pellet was solubilised by resuspension in half the volume of buffer as before containing 1.0% (v/v) Triton X-100 and incubated at 37° C. for 45 mins. The suspension was then centrifuged at 100,000 g for 60 mins and the solubilised enzymes contained in the supernatant separated by DEAE-cellulose column chromatography. Enkephalinase Al was further purified by Sephacryl S.300 chromatography.
Enkephalinase-inhibiting activity was estimated by the following procedure. 1.75 μl of leucine enkephalin (0.317 mg/ml), 0.5 μl of ^3 H-leucine enkephalin (tyrosyl-3,5-^3 H Enkephalin (5-L-Leucine), The Radiochemical Centre, Amersham, England) and 5.75 μl of buffer as before were incubated at 30° C. for 10 mins with 2 μl of either a solution of test compound (in either 50% ethanol/0.1 M sodium hydrogen carbonate or distilled water) or solvent alone as control. 10 μl of purified enkephalinase Al at 30° C. were added and incubation then continued for a further 30 mins (total incubation time 40 mins, final leucine enkephalin concentration 5×10^-5 M, final ^3 H-leucine enkephalin concentration 12.5 μCi/ml). At the completion of incubation 3 μl of 0.16 M hydrochloric acid was added and the incubation mixture cooled on ice.
Separation of (a) unchanged ^3 H-leucine enkephalin and (b) ^3 H-Tyr-Gly-Gly-OH (^3 H-TGG), generated from (a) by enkephalinase Al in the incubation mixture was effected by thin layer chromatography (plastic silica gel plates of 0.1 mm layer chromatography (plastic silica gel plates of 0.1 mm layer thickness, solvent system ethyl acetate: propan-2-ol: 5% (v/v) acetic acid, 2:2:1) using solutions of the cold compounds as carriers. After drying the materials were visualized with ninhydrin and appropriate areas of the plates cut out and placed in scintillation vials containing 50% methanol/0.1 M hydrochloric acid to elute the ^3 H label. Biofluor reagent (10 ml) was then added and the radioactivity determined by liquid scintillation counting.
The ^3 H-TGG generated in the presence of test compound (expressed as a percentage of the control figure) was then calculated and an approximate IC50 figure (concentration of test compound required for 50% inhibition of ^3 H-TGG generation) then determined graphically.

ACE versus enkephalinase = settings: reported by Swerts et al.; ACE vs enkephalinase; cited from earlier work
[2] = approximate, determined graphically, read-out: IC50 (concentration of test compound required for 50% inhibition of 3H-TGG generation)
[3] = no effect at 3 × 10^-5, read-out: IC50 (footnote symbol: no effect)

Structure (SMILES) | pIC50 [1, 2] | concentration required to inhibit ACE by 50% lower than that required for the same degree of inhibition of enkephalinase (ACE versus enkephalinase) | pIC50 [1, 3]
COc1ccc(CC(C(=O)N[C@@H](CC(C)C)C(=O)O)P(=O)(O)O)cc1 (single isomer, unassigned) [Compound No. 1, N-[2-(Dihydroxyphosphinyl)-3-(4-methoxyphenyl)propionyl]-L-leucine] | 5.74 | – | –
CCOC(=O)[C@H](CC(C)C)NC(=O)C(Cc1ccccc1)CP(=O)(O)O (single isomer, unassigned) [compound 11] | 6.17 | – | –
CCOC(=O)[C@H](CC(C)C)NC(=O)C(Cc1ccccc1)CP(=O)(O)O (single isomer, unassigned) [compound 12] | 4.00 | – | –
CC(C)C[C@H](NC(=O)C(Cc1ccccc1)CP(=O)(O)O)C(=O)O (single isomer, unassigned) [compound 13, N-[2-Benzyl-3-(dihydroxyphosphinyl)propionyl]leucine] | 6.80 | – | –
CC(C)C[C@H](NC(=O)C(Cc1ccccc1)CP(=O)(O)O)C(=O)O (single isomer, unassigned) [compound 14, N-[2-Benzyl-3-(dihydroxyphosphinyl)propionyl]leucine] | 4.74 | – | –
C[C@H](CS)C(=O)N1CCC[C@H]1C(=O)O [Captopril, 1-(D-3-mercapto-2-methylpropanoyl)-L-proline (S,S), reference compound] | 4.52 | approximately 1000 fold | –
CC(C)C[C@H](NC(=O)C(Cc1ccccc1)P(=O)(O)O)C(=O)O (stereo partly drawn) [Compound No. 7, N-[2-(Dihydroxyphosphinyl)-3-phenylpropionyl]-L-leucine tri-lithium salt] | 6.17 | – | –
CC(C)C[C@H](NC(=O)C(Cc1ccc(Br)cc1)P(=O)(O)O)C(=O)O (stereo partly drawn) [Compound No. 9, N-[3-(4-bromophenyl)-2-dihydroxyphosphinylpropionyl]-L-leucine, monosodium salt] | 5.17 | – | –
CC(C)C[C@H](NC(=O)C(Cc1ccc(C(C)C)cc1)P(=O)(O)O)C(=O)O (stereo partly drawn) [Compound No. 10, N-[2-dihydroxyphosphinyl-3-(4-isopropylphenyl)propionyl]-L-leucine, disodium salt] | 4.64 | – | –
CCOC(=O)[C@H](CC(C)C)NC(=O)C(Cc1ccccc1)P(=O)(OCC)OCC (stereo partly drawn) [compound 2, N-[2-(Diethoxyphosphinyl)-3-phenylpropionyl]-L-leucine ethyl ester] | – | – | < 4.52
CCOC(=O)[C@H](CC(C)C)NC(=O)C(Cc1ccccc1)P(=O)(O)O (stereo partly drawn) [compound 4, N-[2-(Dihydroxyphosphinyl)-3-phenylpropionyl.-L-leucine] ethyl ester] | 6.22 | – | –
CCOC(=O)[C@H](CC(C)C)NC(=O)C(Cc1ccccc1)P(=O)(O)O (stereo partly drawn) [compound 5, N-[2-(Dihydroxyphosphinyl)-3-phenylpropionyl.-L-leucine] ethyl ester] | 5.82 | – | –
CC(C)C[C@H](NC(=O)C(Cc1ccccc1)P(=O)(O)O)C(=O)O (stereo partly drawn) [compound 6, N-[2-(Dihydroxyphosphinyl)-3-phenylpropionyl]-L-leucine tri-lithium salt] | 6.89 | – | –
CCOP(=O)(OCC)C(Cc1ccccc1)C(=O)N[C@@H](CC(C)C)C(=O)O (stereo partly drawn) [compound 8, N-[2-(Diethoxyphosphinyl)-3-phenylpropionyl]-L-leucine] | – | – | < 4.52

— US4423242A, “Pharmaceutical amides, and preparation, formulations and use of thereof” (The Wellcome Foundation Ltd., priority 1981, dated 1983)
